In ChEMBL document CHEMBL3044960, “Evaluation of fungicide applications to sweet orange at different flowering stages for control of postbloom fruit drop caused by Colletotrichum acutatum” (2008) one finds Activity data, which are given here for 1 compound.

Each structure is given as a SMILES string. Activity calls are given as the source filed them. No cut-off for these calls is given here.

The subject of experiment [1] is Colletotrichum acutatum. Description: Fungicidal activity against Colletotrichum acutatum infested Citrus sinensis assessed as total fruit weight per plant at 0.056 g/l applied through airblast sprayer during white bud and hollow ball flower stages measured after 70 days (Rvb =49.88 kg)s. It is filed as functional.
For experiment [2], the system named is Colletotrichum acutatum. Description: Fungicidal activity against Colletotrichum acutatum infested Citrus sinensis assessed as total fruit weight per plant at 0.056 g/l applied through airblast sprayer during green bud and hollow ball flower stages measured after 70 days (Rvb =49.88 kg). Type of experiment: functional.
In experiment [3] the test system is Colletotrichum acutatum. Description: Fungicidal activity against Colletotrichum acutatum infested Citrus sinensis assessed as total fruit weight per plant at 0.056 g/l applied through airblast sprayer during open flower stage measured after 70 days (Rvb =49.88 kg). It is filed as functional.
Experiment [4] deals with Colletotrichum acutatum. Description: Fungicidal activity against Colletotrichum acutatum infested Citrus sinensis assessed as total fruit weight per plant at 0.056 g/l applied through airblast sprayer during hollow ball flower stage measured after 70 days (Rvb =49.88 kg). It is filed as functional.
Experiment [5] relates to Colletotrichum acutatum. Description: Fungicidal activity against Colletotrichum acutatum infested Citrus sinensis assessed as total fruit weight per plant at 0.056 g/l applied through airblast sprayer during green bud until open flower stages measured after 70 days (Rvb =65.90 kg). Type of experiment: functional.
The test system of experiment [6] is Colletotrichum acutatum. Description: Fungicidal activity against Colletotrichum acutatum infested Citrus sinensis assessed as total fruit weight per plant at 0.056 g/l applied through airblast sprayer during green bud, white bud and hollow ball flower stages measured after 70 days (Rvb =65.90 kg). Type of experiment: functional.
The subject of experiment [7] is Colletotrichum acutatum. Description: Fungicidal activity against Colletotrichum acutatum infested Citrus sinensis assessed as total fruit weight per plant at 0.056 g/l applied through airblast sprayer during green bud and white bud flower stages measured after 70 days (Rvb =65.90 kg). Type of experiment: functional.
The subject of experiment [8] is Colletotrichum acutatum. Description: Fungicidal activity against Colletotrichum acutatum infested Citrus sinensis assessed as total fruit weight per plant at 0.056 g/l applied through airblast sprayer during green bud flower stage measured after 70 days (Rvb =65.90 kg). Type of experiment: functional.
For experiment [9], the system named is Colletotrichum acutatum. Description: Fungicidal activity against Colletotrichum acutatum infested Citrus sinensis assessed as increase in fruit set at 0.056 g/l applied through airblast sprayer during green bud and white bud flower stages measured after 70 days. It is filed as functional, organism-based.
The subject of experiment [10] is Colletotrichum acutatum. Description: Fungicidal activity against Colletotrichum acutatum infested Citrus sinensis assessed as increase in fruit set at 0.056 g/l applied through airblast sprayer during green bud flower stage measured after 70 days. It is filed as functional, organism-based.
Experiment [11] relates to Colletotrichum acutatum. Description: Fungicidal activity against Colletotrichum acutatum infested Citrus sinensis assessed as reduction in number of symptomatic flowers at 0.056 g/l applied through airblast sprayer during green bud until open flower stages measured after 7 days. It is filed as functional, organism-based.
Experiment [12] concerns Colletotrichum acutatum. Description: Fungicidal activity against Colletotrichum acutatum infested Citrus sinensis assessed as reduction in number of symptomatic flowers at 0.056 g/l applied through airblast sprayer during green bud, white bud and hollow ball flower stages measured after 7 days. It is filed as functional, organism-based.
For experiment [13], the system named is Colletotrichum acutatum. Description: Fungicidal activity against Colletotrichum acutatum infested Citrus sinensis assessed as increase in fruit set at 0.056 g/l applied through airblast sprayer during green bud, white bud and hollow ball flower stages measured after 70 days. Type of experiment: functional, organism-based.
For experiment [14], the system named is Colletotrichum acutatum. Description: Fungicidal activity against Colletotrichum acutatum infested Citrus sinensis assessed as increase in fruit set at 0.056 g/l applied through airblast sprayer during open flower stage measured after 70 days. It is filed as functional, organism-based.
For experiment [15], the system named is Colletotrichum acutatum. Description: Fungicidal activity against Colletotrichum acutatum infested Citrus sinensis assessed as reduction in symptomatic flowers at 0.056 g/l applied through airblast sprayer during open flower stage measured after 7 days. Type of experiment: functional, organism-based.
The test system of experiment [16] is Colletotrichum acutatum. Description: Fungicidal activity against Colletotrichum acutatum infested Citrus sinensis assessed as reduction in symptomatic flowers at 0.056 g/l applied through airblast sprayer during hollow ball flower stage measured after 7 days. Type of experiment: functional, organism-based.
Experiment [17] concerns Colletotrichum acutatum. Description: Fungicidal activity against Colletotrichum acutatum infested Citrus sinensis assessed as reduction in symptomatic flowers at 0.056 g/l applied through airblast sprayer during white bud and hollow ball flower stages measured after 7 days. Type of experiment: functional, organism-based.
Experiment [18] concerns Colletotrichum acutatum. Description: Fungicidal activity against Colletotrichum acutatum infested Citrus sinensis assessed as reduction in symptomatic flowers at 0.056 g/l applied through airblast sprayer during green bud and hollow ball flower stages measured after 7 days. It is filed as functional, organism-based.
The test system of experiment [19] is Colletotrichum acutatum. Description: Fungicidal activity against Colletotrichum acutatum infested Citrus sinensis assessed as increase in fruit set at 0.056 g/l applied through airblast sprayer during green bud until open flower stages measured after 70 days. It is filed as functional, organism-based.

Turning to `CC1COC(Cn2cncn2)(c2ccc(Oc3ccc(Cl)cc3)cc2Cl)O1` (centres undefined) [DIFENOCONAZOLE], the Activity is 32.7 kg in experiment [1]; 53.5 kg in experiment [2]; 38 kg in experiment [3]; 71.4 kg in experiment [4]; 47.2 kg in [5]; 53.9 kg in [6]. In addition, the Activity in experiment [7] was 38.7 kg; in experiment [8], 59.2 kg. For the same compound, the result in experiment [9], in experiment [10], in experiment [13], in experiment [14], in experiment [15] and in [16] was inactive. The outcome in experiment [19] was inactive. Besides, the outcome in experiment [11], in experiment [12], in [17] and in experiment [18] was Active.
